In ChEMBL document CHEMBL4406898, “Dual mode of binding of anti cancer drug epirubicin to G-quadruplex [d-(TTAGGGT)]4 containing human telomeric DNA sequence induces thermal stabilization” (Bioorg Med Chem, 2019):

How the values were obtained:
Quadruplex DNA [1] = experiment: Binding affinity to human telomeric 7 G-quadruplex DNA assessed as binding constant Kb1; type: nucleic-acid assay
Quadruplex DNA [2] = experiment: Binding affinity to human telomeric 7 G-quadruplex DNA assessed as binding constant Kb2; type: nucleic-acid assay
Albumin = Albumin (Homo sapiens, UniProt P02768); experiment: Binding affinity to human serum albumin assessed as binding constant after 24 hrs by absorption spectroscopy; type: ADME; conditions: isolated protein
Chain of Albumin (P02768 whole entry): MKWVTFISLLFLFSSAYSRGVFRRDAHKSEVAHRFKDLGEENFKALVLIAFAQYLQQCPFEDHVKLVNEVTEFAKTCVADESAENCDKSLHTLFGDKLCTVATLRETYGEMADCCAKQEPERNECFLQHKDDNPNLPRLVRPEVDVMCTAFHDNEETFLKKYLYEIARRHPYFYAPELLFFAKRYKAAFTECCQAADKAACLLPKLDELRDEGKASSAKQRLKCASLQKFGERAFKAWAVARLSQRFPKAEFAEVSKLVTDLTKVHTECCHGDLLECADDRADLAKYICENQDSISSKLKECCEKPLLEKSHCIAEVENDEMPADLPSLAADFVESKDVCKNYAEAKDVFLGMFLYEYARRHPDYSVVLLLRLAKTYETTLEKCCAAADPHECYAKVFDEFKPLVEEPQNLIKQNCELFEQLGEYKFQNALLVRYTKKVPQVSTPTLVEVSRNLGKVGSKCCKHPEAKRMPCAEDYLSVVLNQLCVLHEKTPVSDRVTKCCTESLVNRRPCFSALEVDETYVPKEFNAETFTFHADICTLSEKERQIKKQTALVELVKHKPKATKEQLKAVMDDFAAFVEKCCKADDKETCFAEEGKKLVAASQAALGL

- Kb (Quadruplex DNA [1]): 1.1 ×10⁶ /M
- Kb (Quadruplex DNA [2]): 0.6 ×10⁶ /M
- Kb (Albumin): 3 ×10³ /M
Structure (SMILES): COc1cccc2c1C(=O)c1c(O)c3c(c(O)c1C2=O)C[C@@](O)(C(=O)CO)C[C@@H]3O[C@H]1C[C@H](N)[C@H](O)[C@H](C)O1.Cl [DOXORUBICIN HYDROCHLORIDE]
